Measured values: patent US20240390438A1, “PROBIOTICS SEPARATED FROM RABBIT FECES AND FOOD CONTAINING PROBIOTICS” (AGENT Innovation Co., Ltd., priority 2021, published 2024)
In brackets after ≈: the same amount, converted by molar mass.

Legend:
[1] = test system: Bacillus cereus; assay: Agar diffusion method-2 (cell-free solution); type: cell-based; conditions: colonies as cell-free solution in holes of TSA; ddH2O control 8
Experimental: (§1) Firstly, the CFSs (containing metabolites) were prepared. Besides, when probiotics break down fiber and convert the fiber into metabolites, the metabolites are postbiotics.
(§2) Next, the pathogenic bacteria described above were also cultured with 37° C. until the concentration thereof reached 1×10^8 CFU/mL, respectively. 100 μL bacterial solutions of the pathogenic bacteria described above were evenly plated on Tryptone Soy Agar (TSA) and stay for 10 minutes. Then, tips were used to form several holes in the TSA. Subsequently, 100 μL bacterial solutions of the colonies described above were added into the holes and then cultured at 37° C. for 12 hours.
(§3) This experiment is designed that the CFSs in the holes prevent the pathogenic bacteria on the plates from growing. Therefore, the larger zone indicates the better antibacterial effect.

[2] = test system: Escherichia coli (ETEC); assay: Agar diffusion method-2 (cell-free solution); type: cell-based; conditions: colonies as cell-free solution in holes of TSA; ddH2O control 8
Experimental: as §1, §2, §3

[3] = test system: Klebsiella pneumoniae; assay: Agar diffusion method-2 (cell-free solution); type: cell-based; conditions: colonies as cell-free solution in holes of TSA; ddH2O control 8
Experimental: as §1, §2, §3

[4] = test system: Pseudomonas aeruginosa; assay: Agar diffusion method-2 (cell-free solution); type: cell-based; conditions: colonies as cell-free solution in holes of TSA; ddH2O control 8
Experimental: as §1, §2, §3

[5] = test system: Salmonella enterica; assay: Agar diffusion method-2 (cell-free solution); type: cell-based; conditions: colonies as cell-free solution in holes of TSA; ddH2O control 8
Experimental: as §1, §2, §3

[6] = test system: Shigella sonnei; assay: Agar diffusion method-2 (cell-free solution); type: cell-based; conditions: colonies as cell-free solution in holes of TSA; ddH2O control 8
Experimental: as §1, §2, §3

[7] = test system: Staphylococcus aureus; assay: Agar diffusion method-2 (cell-free solution); type: cell-based; conditions: colonies as cell-free solution in holes of TSA; ddH2O control 8
Experimental: as §1, §2, §3

[8] = test system: Streptococcus pneumoniae; assay: Agar diffusion method-2 (cell-free solution); type: cell-based; conditions: colonies as cell-free solution in holes of TSA; ddH2O control 8
Experimental: as §1, §2, §3

[9] = test system: Salmonella enterica; assay: Minimum inhibitory concentration and minimum bacterial concentration; type: cell-based
[10] = test system: Bacillus cereus; assay: as above; type: cell-based; conditions: antibiotics
Experimental: (§4) Minimum inhibitory concentration (MIC) refers to the minimum concentration at which the development of bacteria can be blocked and antibacterial resistance can be observed after cultured. The lower MIC means the better effect on bacteria.
(§5) The supernatants of the cultured colonies described above were collected, as cell-free solutions (CFSs), by centrifuge at 5000 rpm after cultured the colonies in a nutrient broth and shaking at 37° C. for 48 hours.
(§6) Next, 100 μL each of the CFSs and 100 μL bacterial solutions of the pathogenic bacteria were respectively added to each well of a 96-well plate. Thus, the total volume in each well was 200 μL. The tested pathogenic bacteria included Salmonella enterica, Shigella sonnei, Klebsiella pneumoniae, Streptococcus pneumoniae, Bacillus cereus, Staphylococcus aureus, Pseudomonas aeruginosa, and Escherichia coli.
(§7) As well, 100 μL each of the nutrient broth containing Ampicillin or Kanamycin and 100 μL bacterial solutions of the pathogenic bacteria were respectively added to each well of a 96-well plate. Thus, the total volume in each well was 200 μL.
(§8) Then, initial values of OD600 in each well were recorded. Subsequently, the 96-well plates were cultured at 37° C. for 24 hours, and the OD600 values thereof were re-recorded for determining the MICs of each colony described above.
(§9) Finally, 100 μL CFSs of the next three concentrations […] MIC were taken to be plated on nutrient agar and then cultured at 37° C. for 48-72 hours. The concentrations of the CFSs that no colonies grown on nutrient agar were determined to be the minimum bacterial concentration (MBCs).

[11] = test system: Escherichia coli (ETEC); assay: as above; type: cell-based; conditions: antibiotics
Experimental: as §4, §5, §6, §7, §8, §9

[12] = test system: Klebsiella pneumoniae; assay: as above; type: cell-based; conditions: antibiotics
Experimental: as §4, §5, §6, §7, §8, §9

[13] = test system: Pseudomonas aeruginosa; assay: as above; type: cell-based; conditions: antibiotics
Experimental: as §4, §5, §6, §7, §8, §9

[14] = test system: Shigella sonnei; assay: as above; type: cell-based; conditions: antibiotics
Experimental: as §4, §5, §6, §7, §8, §9

[15] = test system: Staphylococcus aureus; assay: as above; type: cell-based; conditions: antibiotics
Experimental: as §4, §5, §6, §7, §8, §9

[16] = test system: Streptococcus pneumoniae; assay: as above; type: cell-based; conditions: antibiotics
Experimental: as §4, §5, §6, §7, §8, §9

[17] = test system: Colony LP19; assay: Antibiotic susceptibility test; type: cell-based, Lactiplantibacillus Plantarum
Excerpt: (§10) To test bacterial susceptibility to antibiotics, such as Aminoglycosides antibiotics, Sulfonamide antibiotics, Quinolone antibiotics, Ampicillin, Cefotaxime, Chloramphenicol, Erythromycin, Rifampicin and Tetracycline, the experimental protocol were as follow. Further, the Quinolone antibiotics comprise Ciprofloxacin, the Aminoglycosides antibiotics comprise Kanamycin and […], and the Sulfonamide antibiotics comprise Sulfamethoxazole. […] The initial absorbance at 600 nm (OD600) of each well was recorded. Then, the 96-well plates were placed at 37° C. and cultured for 24 hours. Next, the OD600 of each well was measured again to determine minimum inhibitory concentration.

[18] = test system: Colony LP1; assay: Antibiotic susceptibility test; type: cell-based, Lactiplantibacillus Plantarum
Excerpt: as §10

[19] = test system: Colony LP2; assay: Antibiotic susceptibility test; type: cell-based, Lactiplantibacillus Plantarum; conditions: 96-well, 37 C 24 h, OD600
Excerpt: as §10

[20] = test system: Colony LP5; assay: Antibiotic susceptibility test; type: cell-based, Lactiplantibacillus Plantarum
Excerpt: as §10

[21] = test system: Colony PTA22; assay: Antibiotic susceptibility test; type: cell-based, Lactiplantibacillus Plantarum
Excerpt: as §10

[22] = plated on nutrient agar 48-72 h

**Q.** With `NC[C@H]1O[C@H](O[C@H]2[C@H](O)[C@@H](O[C@H]3O[C@H](CO)[C@@H](O)[C@H](N)[C@H]3O)[C@H](N)C[C@@H]2N)[C@H](O)[C@@H](O)[C@@H]1O` [Kanamycin] as the compound, how does the “Inhibitory zone, Bacillus Cereus” value [1] read?
**A.** Its value is 20 mm.

**Q.** And the “Inhibitory zone, Escherichia coli (ETEC)” value [2]?
**A.** The value was 17 mm.

**Q.** What about the “Inhibitory zone, Klebsiella Pneumoniae” value [3] of the same compound?
**A.** The value was 20 mm.

**Q.** What about the “Inhibitory zone, Pseudomonas Aeruginosa” value [4] of the same compound?
**A.** Its value is 20 mm.

**Q.** What about the “Inhibitory zone, Salmonella Enterica” value [5] of the same compound?
**A.** Its value is 16 mm.

**Q.** And the “Inhibitory zone, Shigella Sonnei” value [6]?
**A.** Its value is 20 mm.

**Q.** And the “Inhibitory zone, Staphylococcus Aureus” value [7]?
**A.** Its value is 23 mm.

**Q.** And the “Inhibitory zone, Streptococcus Pneumoniae” value [8]?
**A.** Its value is 20 mm.

**Q.** And the MIC ([9]; 24 h, read-out: MIC, Salmonella Enterica)?
**A.** The MIC was 64 µg/mL (≈ 132 µM).

**Q.** And the MBC ([9]; antibiotics, plated on nutrient agar 48-72 h)?
**A.** The MBC was 128 µg/mL (≈ 264 µM).

**Q.** And the MIC ([10]; 37 C 24 h, OD600)?
**A.** The MIC was 256 µg/mL (≈ 528 µM).

**Q.** And the MBC [10, 22]?
**A.** Its MBC is over 256 µg/mL.

**Q.** And the MIC ([11]; 37 C 24 h, OD600)?
**A.** Its MIC is 64 µg/mL (≈ 132 µM).

**Q.** What about the MBC [11, 22] of the same compound?
**A.** The MBC was 128 µg/mL (≈ 264 µM).

**Q.** And the MIC ([12]; 37 C 24 h, OD600)?
**A.** Its MIC is 32 µg/mL (≈ 66 µM).

**Q.** And the MBC [12, 22]?
**A.** Its MBC is 64 µg/mL (≈ 132 µM).

**Q.** What about the MIC ([13]; 37 C 24 h, OD600) of the same compound?
**A.** The MIC was 8 µg/mL (≈ 16.5 µM).

**Q.** And the MBC [13, 22]?
**A.** Its MBC is 16 µg/mL (≈ 33 µM).

**Q.** And the MIC ([14]; 37 C 24 h, OD600)?
**A.** The MIC was 16 µg/mL (≈ 33 µM).

**Q.** What about the MBC [14, 22] of the same compound?
**A.** Its MBC is 64 µg/mL (≈ 132 µM).

**Q.** What about the MIC ([15]; 37 C 24 h, OD600) of the same compound?
**A.** The MIC was 4 µg/mL (≈ 8.26 µM).

**Q.** And the MBC [15, 22]?
**A.** Its MBC is 8 µg/mL (≈ 16.5 µM).

**Q.** What about the MIC ([16]; 37 C 24 h, OD600) of the same compound?
**A.** Its MIC is 8 µg/mL (≈ 16.5 µM).

**Q.** And the MBC [16, 22]?
**A.** Its MBC is 16 µg/mL (≈ 33 µM).

**Q.** What about the “Minimum inhibitory concentration of the antibiotic to LP19” value ([17]; 96-well, 37 C 24 h, OD600) of the same compound?
**A.** The value was over 256 µg/mL.

**Q.** What about the MIC ([17]; Lactiplantibacillus plantarum, LP19, 24 h, read-out: Minimum inhibitory concentration of the antibiotic to LP19, 96-well, 37 C 24 h, OD600) of the same compound?
**A.** Its MIC is over 256 µg/mL.

**Q.** What about the “Minimum inhibitory concentration of the antibiotic to LP1” value ([18]; 96-well, 37 C 24 h, OD600) of the same compound?
**A.** Its value is over 256 µg/mL.

**Q.** And the MIC ([18]; Lactiplantibacillus plantarum, LP1, 24 h, read-out: Minimum inhibitory concentration of the antibiotic to LP1, 96-well, 37 C 24 h, OD600)?
**A.** Its MIC is over 256 µg/mL.

**Q.** And the “Minimum inhibitory concentration of the antibiotic to LP2” value [19]?
**A.** Its value is over 256 µg/mL.

**Q.** And the MIC ([19]; Lactiplantibacillus plantarum, LP2, 24 h, read-out: Minimum inhibitory concentration of the antibiotic to LP2)?
**A.** Its MIC is over 256 µg/mL.

**Q.** What about the “Minimum inhibitory concentration of the antibiotic to LP5” value ([20]; 96-well, 37 C 24 h, OD600) of the same compound?
**A.** Its value is over 256 µg/mL.

**Q.** What about the MIC ([20]; Lactiplantibacillus plantarum, LP5, 24 h, read-out: Minimum inhibitory concentration of the antibiotic to LP5, 96-well, 37 C 24 h, OD600) of the same compound?
**A.** The MIC was over 256 µg/mL.

**Q.** And the “Minimum inhibitory concentration of the antibiotic to PTA22” value ([21]; 96-well, 37 C 24 h, OD600)?
**A.** Its value is over 256 µg/mL.

**Q.** What about the MIC ([21]; Lactiplantibacillus plantarum, PTA22, 24 h, read-out: Minimum inhibitory concentration of the antibiotic to PTA22, 96-well, 37 C 24 h, OD600) of the same compound?
**A.** The MIC was over 256 µg/mL.
